ChEMBL document CHEMBL4507299, “Data for DCP probe PF-04554878” (2021)

Key:
[1] = target: Interferon-induced, double-stranded RNA-activated protein kinase (Homo sapiens) (UniProt P19525)
[2] = target: Protein-tyrosine kinase 2-beta (Homo sapiens, UniProt Q14289)
[3] = target: Serine/threonine-protein kinase Nek6 (Homo sapiens) (UniProt Q9HC98)
[4] = target: Serine/threonine-protein kinase TAO1 (Homo sapiens) (UniProt Q7L7X3)
[5] = target: cGMP-dependent protein kinase 1 (Homo sapiens) (UniProt Q13976)
[6] = system: Epidermal growth factor receptor (Homo sapiens), P00533 [G719C]
[7] = target: Serine/threonine-protein kinase haspin (Homo sapiens) (UniProt Q8TF76)
[8] = target: Serine/threonine-protein kinase OSR1 (Homo sapiens) (UniProt O95747)
[9] = target: Dual specificity mitogen-activated protein kinase kinase 1 (Homo sapiens) (UniProt Q02750)
[10] = target: Serine/threonine-protein kinase D3 (Homo sapiens) (UniProt O94806)
[11] = target: Muscarinic acetylcholine receptor M3 (Homo sapiens) (UniProt P20309); settings: Compound concentration 10.0 uM
[12] = target: Peripheral plasma membrane protein CASK (Homo sapiens) (UniProt O14936)
[13] = system: Receptor-type tyrosine-protein kinase FLT3 (Homo sapiens), P36888 [D835Y]
[14] = target: Calcium-dependent protein kinase 1 (Plasmodium falciparum) (UniProt P62344)
[15] = target: Serine/threonine-protein kinase Nek4 (Homo sapiens) (UniProt P51957)
[16] = target: Uncharacterized serine/threonine-protein kinase SBK3 (Homo sapiens) (UniProt P0C264)
[17] = target: Activin receptor type-1 (Homo sapiens) (UniProt Q04771)
[18] = target: Serine/threonine-protein kinase WNK4 (Homo sapiens) (UniProt Q96J92)
[19] = system: Mast/stem cell growth factor receptor Kit (Homo sapiens), P10721 [D816H]
[20] = target: Dual specificity testis-specific protein kinase 1 (Homo sapiens) (UniProt Q15569)
[21] = system: Tyrosine-protein kinase ABL1 (Homo sapiens), P00519 [F317L]
[22] = target: Muscarinic acetylcholine receptor M5 (Homo sapiens) (UniProt P08912); settings: Compound concentration 10.0 uM
[23] = target: Serine/threonine-protein kinase MAK (Homo sapiens) (UniProt P20794)
[24] = target: Serine/threonine-protein kinase 24 (Homo sapiens) (UniProt Q9Y6E0)
[25] = system: Tyrosine-protein kinase ABL1 (Homo sapiens), P00519 [M351T]
[26] = target: Tyrosine-protein kinase receptor Tie-1 (Homo sapiens) (UniProt P35590)
[27] = target: Mitogen-activated protein kinase kinase kinase 12 (Homo sapiens) (UniProt Q12852)
[28] = target: Serine/threonine-protein kinase WNK1 (Homo sapiens) (UniProt Q9H4A3)
[29] = target: MAP kinase-interacting serine/threonine-protein kinase 2 (Homo sapiens) (UniProt Q9HBH9)
[30] = target: Histamine H2 receptor (Homo sapiens) (UniProt P25021); settings: Compound concentration 10.0 uM
[31] = target: Mitogen-activated protein kinase 8 (Homo sapiens) (UniProt P45983)
[32] = target: Mitogen-activated protein kinase kinase kinase 4 (Homo sapiens) (UniProt Q9Y6R4)
[33] = system: Mast/stem cell growth factor receptor Kit (Homo sapiens), P10721 [V559D,T670I]
[34] = target: 5'-AMP-activated protein kinase catalytic subunit alpha-1 (Homo sapiens) (UniProt Q13131)
[35] = target: Receptor-interacting serine/threonine-protein kinase 2 (Homo sapiens) (UniProt O43353)
[36] = target: 3-phosphoinositide-dependent protein kinase 1 (Homo sapiens) (UniProt O15530)
[37] = target: Beta-3 adrenergic receptor (Homo sapiens) (UniProt P13945); settings: Compound concentration 10.0 uM
[38] = target: Phosphatidylinositol 4-phosphate 3-kinase C2 domain-containing subunit beta (Homo sapiens) (UniProt O00750)
[39] = target: Interleukin-1 receptor-associated kinase 3 (Homo sapiens) (UniProt Q9Y616)
[40] = target: Tyrosine-protein kinase ABL1 (Homo sapiens, UniProt P00519)
[41] = system: Leucine-rich repeat serine/threonine-protein kinase 2 (Homo sapiens), Q5S007 [G2019S]
[42] = target: Mitogen-activated protein kinase 14 (Homo sapiens) (UniProt Q16539)
[43] = target: Atypical kinase COQ8A, mitochondrial (Homo sapiens) (UniProt Q8NI60)
[44] = target: AP2-associated protein kinase 1 (Homo sapiens) (UniProt Q2M2I8)
[45] = target: Serine/threonine-protein kinase WNK3 (Homo sapiens) (UniProt Q9BYP7)
[46] = Compound concentration 100.0 nM
[47] = Compound concentration 1000.0 nM

Sequence of Calcium-dependent protein kinase 1 (Plasmodium falciparum) (P62344 2-524 limits assumed): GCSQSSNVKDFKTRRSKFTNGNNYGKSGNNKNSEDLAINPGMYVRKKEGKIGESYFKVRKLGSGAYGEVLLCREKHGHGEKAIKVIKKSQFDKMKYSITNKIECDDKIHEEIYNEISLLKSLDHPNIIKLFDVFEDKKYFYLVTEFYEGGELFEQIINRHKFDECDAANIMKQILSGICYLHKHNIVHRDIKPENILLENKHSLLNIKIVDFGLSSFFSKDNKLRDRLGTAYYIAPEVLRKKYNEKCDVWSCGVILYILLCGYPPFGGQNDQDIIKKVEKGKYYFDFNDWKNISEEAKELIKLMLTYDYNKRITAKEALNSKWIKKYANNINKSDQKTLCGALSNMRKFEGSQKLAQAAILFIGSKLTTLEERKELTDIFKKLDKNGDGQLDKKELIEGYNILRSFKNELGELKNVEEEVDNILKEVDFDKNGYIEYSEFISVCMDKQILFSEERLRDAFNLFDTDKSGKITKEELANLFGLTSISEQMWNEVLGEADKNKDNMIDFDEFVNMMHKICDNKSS
Sequence of Mast/stem cell growth factor receptor Kit (Homo sapiens), P10721 [V559D,T670I] (P10721 whole entry V559D/T670I): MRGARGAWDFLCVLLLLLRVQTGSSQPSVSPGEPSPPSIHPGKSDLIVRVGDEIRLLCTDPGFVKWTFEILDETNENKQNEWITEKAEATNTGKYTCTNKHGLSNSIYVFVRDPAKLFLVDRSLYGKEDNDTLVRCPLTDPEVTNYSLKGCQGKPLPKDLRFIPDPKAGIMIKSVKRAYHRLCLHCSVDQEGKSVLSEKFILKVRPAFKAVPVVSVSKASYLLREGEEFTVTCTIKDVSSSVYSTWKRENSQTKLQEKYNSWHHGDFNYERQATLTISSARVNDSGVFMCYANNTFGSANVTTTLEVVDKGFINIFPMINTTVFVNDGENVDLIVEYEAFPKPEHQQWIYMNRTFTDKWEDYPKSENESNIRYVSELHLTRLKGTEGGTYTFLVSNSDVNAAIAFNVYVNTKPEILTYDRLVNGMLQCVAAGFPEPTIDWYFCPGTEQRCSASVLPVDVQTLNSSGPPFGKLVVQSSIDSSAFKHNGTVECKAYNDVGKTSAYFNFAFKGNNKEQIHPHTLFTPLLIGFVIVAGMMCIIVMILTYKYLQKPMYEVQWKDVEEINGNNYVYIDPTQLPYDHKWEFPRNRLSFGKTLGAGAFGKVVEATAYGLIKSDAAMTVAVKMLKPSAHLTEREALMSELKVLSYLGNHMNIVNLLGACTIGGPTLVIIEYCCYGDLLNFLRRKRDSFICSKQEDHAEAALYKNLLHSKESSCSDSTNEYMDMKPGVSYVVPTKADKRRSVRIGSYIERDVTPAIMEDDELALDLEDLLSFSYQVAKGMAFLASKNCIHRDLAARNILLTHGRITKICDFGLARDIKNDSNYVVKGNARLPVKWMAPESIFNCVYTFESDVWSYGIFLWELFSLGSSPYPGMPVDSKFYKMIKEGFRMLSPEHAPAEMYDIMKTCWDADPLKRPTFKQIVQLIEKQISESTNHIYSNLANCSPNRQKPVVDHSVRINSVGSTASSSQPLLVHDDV
Sequence of Muscarinic acetylcholine receptor M3 (Homo sapiens) (P20309 whole entry, looked up): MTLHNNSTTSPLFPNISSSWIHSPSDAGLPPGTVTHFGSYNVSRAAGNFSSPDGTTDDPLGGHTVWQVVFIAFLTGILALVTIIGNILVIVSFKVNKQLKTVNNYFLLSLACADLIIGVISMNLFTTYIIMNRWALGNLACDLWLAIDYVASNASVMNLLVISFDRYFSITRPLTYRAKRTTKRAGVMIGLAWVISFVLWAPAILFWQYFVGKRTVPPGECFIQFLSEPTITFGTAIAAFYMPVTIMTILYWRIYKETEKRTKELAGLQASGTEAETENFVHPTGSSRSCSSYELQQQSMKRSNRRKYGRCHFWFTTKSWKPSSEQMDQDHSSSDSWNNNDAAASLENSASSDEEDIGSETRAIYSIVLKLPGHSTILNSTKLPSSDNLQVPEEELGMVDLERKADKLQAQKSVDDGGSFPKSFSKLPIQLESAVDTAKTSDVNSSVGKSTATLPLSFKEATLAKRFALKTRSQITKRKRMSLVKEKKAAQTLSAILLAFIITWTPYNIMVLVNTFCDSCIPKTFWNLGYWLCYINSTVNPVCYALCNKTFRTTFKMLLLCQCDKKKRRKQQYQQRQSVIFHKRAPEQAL
Sequence of Serine/threonine-protein kinase Nek6 (Homo sapiens) (Q9HC98 whole entry): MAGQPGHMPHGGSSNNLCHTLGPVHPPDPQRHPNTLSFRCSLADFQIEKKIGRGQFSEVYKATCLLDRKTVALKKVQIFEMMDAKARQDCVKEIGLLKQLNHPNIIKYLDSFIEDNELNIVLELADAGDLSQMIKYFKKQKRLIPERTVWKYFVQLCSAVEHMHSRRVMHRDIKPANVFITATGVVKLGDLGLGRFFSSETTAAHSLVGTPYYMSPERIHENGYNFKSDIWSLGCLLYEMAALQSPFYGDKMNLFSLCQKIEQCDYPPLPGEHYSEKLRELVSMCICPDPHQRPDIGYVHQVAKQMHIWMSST
Sequence of Tyrosine-protein kinase receptor Tie-1 (Homo sapiens) (P35590 whole entry): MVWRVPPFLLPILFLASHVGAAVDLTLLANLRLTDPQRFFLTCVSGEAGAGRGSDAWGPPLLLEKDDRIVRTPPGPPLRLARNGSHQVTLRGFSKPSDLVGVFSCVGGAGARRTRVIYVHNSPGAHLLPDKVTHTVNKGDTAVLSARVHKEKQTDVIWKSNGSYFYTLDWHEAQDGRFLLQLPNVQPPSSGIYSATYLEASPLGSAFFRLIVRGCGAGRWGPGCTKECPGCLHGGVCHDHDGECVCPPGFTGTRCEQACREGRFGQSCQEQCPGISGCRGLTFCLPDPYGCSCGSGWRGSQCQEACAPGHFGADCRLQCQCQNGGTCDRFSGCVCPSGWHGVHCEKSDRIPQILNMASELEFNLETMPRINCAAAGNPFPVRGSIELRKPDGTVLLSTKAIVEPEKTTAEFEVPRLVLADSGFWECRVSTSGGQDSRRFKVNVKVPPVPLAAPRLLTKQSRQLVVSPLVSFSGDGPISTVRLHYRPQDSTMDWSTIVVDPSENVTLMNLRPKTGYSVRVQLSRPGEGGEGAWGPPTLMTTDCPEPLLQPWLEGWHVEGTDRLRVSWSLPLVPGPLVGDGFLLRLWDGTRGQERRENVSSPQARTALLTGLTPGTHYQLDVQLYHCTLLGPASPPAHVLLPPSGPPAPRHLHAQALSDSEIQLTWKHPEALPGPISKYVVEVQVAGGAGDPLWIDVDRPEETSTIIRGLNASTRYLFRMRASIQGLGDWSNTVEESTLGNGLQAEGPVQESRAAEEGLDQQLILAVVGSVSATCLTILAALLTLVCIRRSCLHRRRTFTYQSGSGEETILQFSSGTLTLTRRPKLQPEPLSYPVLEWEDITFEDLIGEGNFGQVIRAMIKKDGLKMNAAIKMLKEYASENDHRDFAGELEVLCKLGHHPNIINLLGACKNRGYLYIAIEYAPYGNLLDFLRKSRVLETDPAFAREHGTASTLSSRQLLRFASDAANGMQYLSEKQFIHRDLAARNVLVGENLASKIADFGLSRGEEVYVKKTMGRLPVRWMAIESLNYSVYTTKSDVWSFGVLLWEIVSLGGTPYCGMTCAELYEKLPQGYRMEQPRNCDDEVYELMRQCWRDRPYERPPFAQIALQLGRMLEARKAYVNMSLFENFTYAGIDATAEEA
Sequence of Serine/threonine-protein kinase MAK (Homo sapiens) (P20794 whole entry): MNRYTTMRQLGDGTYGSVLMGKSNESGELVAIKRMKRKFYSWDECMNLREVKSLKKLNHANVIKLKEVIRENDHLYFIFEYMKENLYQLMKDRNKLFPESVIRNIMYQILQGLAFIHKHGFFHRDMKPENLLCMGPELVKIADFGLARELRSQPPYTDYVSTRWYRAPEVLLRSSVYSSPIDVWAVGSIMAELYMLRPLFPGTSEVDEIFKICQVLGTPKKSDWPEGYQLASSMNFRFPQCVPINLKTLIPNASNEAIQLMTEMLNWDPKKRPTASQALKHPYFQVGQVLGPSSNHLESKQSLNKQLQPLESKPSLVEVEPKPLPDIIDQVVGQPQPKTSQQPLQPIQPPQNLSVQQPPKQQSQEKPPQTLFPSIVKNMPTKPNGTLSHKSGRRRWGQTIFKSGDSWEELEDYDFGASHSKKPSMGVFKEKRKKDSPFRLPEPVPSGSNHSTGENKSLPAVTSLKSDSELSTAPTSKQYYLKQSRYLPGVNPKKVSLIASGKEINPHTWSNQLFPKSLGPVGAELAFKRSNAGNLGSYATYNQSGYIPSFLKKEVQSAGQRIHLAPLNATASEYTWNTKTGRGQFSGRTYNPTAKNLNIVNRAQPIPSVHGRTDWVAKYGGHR
Sequence of Uncharacterized serine/threonine-protein kinase SBK3 (Homo sapiens) (P0C264 whole entry): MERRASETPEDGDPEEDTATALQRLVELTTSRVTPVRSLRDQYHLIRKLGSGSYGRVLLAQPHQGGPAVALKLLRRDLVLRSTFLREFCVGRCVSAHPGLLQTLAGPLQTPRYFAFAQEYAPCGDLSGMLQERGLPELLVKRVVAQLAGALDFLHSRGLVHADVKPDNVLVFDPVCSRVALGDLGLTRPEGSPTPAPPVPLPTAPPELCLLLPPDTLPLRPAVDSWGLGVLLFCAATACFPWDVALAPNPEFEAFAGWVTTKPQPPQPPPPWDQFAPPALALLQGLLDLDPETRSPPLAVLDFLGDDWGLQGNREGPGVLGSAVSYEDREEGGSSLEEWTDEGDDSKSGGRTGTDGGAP
Sequence of Beta-3 adrenergic receptor (Homo sapiens) (P13945 whole entry, looked up, the tested form may be a part): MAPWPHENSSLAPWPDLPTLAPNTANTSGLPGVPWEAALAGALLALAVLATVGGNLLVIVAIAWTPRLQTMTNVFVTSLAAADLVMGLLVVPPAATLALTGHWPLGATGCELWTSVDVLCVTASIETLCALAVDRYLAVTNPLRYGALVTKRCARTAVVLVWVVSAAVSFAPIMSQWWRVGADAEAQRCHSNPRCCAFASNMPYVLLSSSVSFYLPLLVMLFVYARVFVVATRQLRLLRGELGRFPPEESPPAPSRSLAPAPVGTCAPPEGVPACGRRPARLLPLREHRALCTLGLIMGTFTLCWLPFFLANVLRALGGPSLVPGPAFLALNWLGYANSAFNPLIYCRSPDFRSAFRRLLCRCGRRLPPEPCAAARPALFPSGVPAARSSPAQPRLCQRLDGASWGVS

CNC(=O)c1ccc(Nc2ncc(C(F)(F)F)c(NCc3nccnc3N(C)S(C)(=O)=O)n2)cc1 [DEFACTINIB]
residual activity [1, 46]: 100% | residual activity [2, 46]: 8.3% | residual activity [3, 46]: 81% | residual activity [4, 46]: 50% | residual activity [5, 46]: 100% | residual activity [6, 46]: 94% | residual activity [7, 46]: 100% | residual activity [8, 46]: 100% | residual activity [9, 46]: 100% | residual activity [10, 46]: 100% | inhibition [11]: 23.8% | residual activity [12, 46]: 88% | residual activity [13, 46]: 5.9% | residual activity [14, 46]: 85% | residual activity [15, 46]: 76% | residual activity [16, 46]: 100% | residual activity [17, 46]: 100% | residual activity [18, 46]: 81% | residual activity [19, 46]: 71% | residual activity [20, 46]: 96% | residual activity [21, 46]: 100% | inhibition [22]: 5.41% | residual activity [23, 46]: 85% | residual activity [24, 46]: 54% | residual activity [25, 46]: 100% | residual activity [26, 46]: 47% | residual activity [27, 46]: 83% | residual activity [28, 46]: 100% | residual activity [29, 46]: 100% | inhibition [30]: 30.2% | residual activity [31, 46]: 100% | residual activity [32, 46]: 100% | residual activity [33, 46]: 100% | residual activity [34, 46]: 84% | residual activity [35, 46]: 100% | residual activity [36, 46]: 81% | inhibition [37]: 4.63% | residual activity [38, 46]: 87% | residual activity [39, 46]: 70% | residual activity [40, 46]: 88% | residual activity [41, 46]: 65% | residual activity [42, 46]: 100% | residual activity [43, 46]: 98% | residual activity [44, 46]: 80% | residual activity [45, 46]: 100%

CN(c1ccnc(CNc2nc(Nc3ccc4c(c3)CC(=O)N4)ncc2C(F)(F)F)n1)S(C)(=O)=O [PF-00911705]
residual activity [1, 47]: 82% | residual activity [2, 47]: 59% | residual activity [3, 47]: 84% | residual activity [4, 47]: 3.7% | residual activity [5, 47]: 100% | residual activity [6, 47]: 86% | residual activity [7, 47]: 76% | residual activity [8, 47]: 86% | residual activity [9, 47]: 85% | residual activity [10, 47]: 100% | inhibition [11]: -4.64% | residual activity [12, 47]: 85% | residual activity [13, 47]: 2% | residual activity [14, 47]: 84% | residual activity [15, 47]: 84% | residual activity [16, 47]: 100% | residual activity [17, 47]: 91% | residual activity [18, 47]: 0% | residual activity [19, 47]: 44% | residual activity [20, 47]: 97% | residual activity [21, 47]: 71% | inhibition [22]: -6.47% | residual activity [23, 47]: 100% | residual activity [24, 47]: 93% | residual activity [25, 47]: 62% | residual activity [26, 47]: 17% | residual activity [27, 47]: 48% | residual activity [28, 47]: 87% | residual activity [29, 47]: 91% | inhibition [30]: 1.75% | residual activity [31, 47]: 65% | residual activity [32, 47]: 91% | residual activity [33, 47]: 100% | residual activity [34, 47]: 80% | residual activity [35, 47]: 82% | residual activity [36, 47]: 54% | inhibition [37]: 1.64% | residual activity [38, 47]: 79% | residual activity [39, 47]: 11% | residual activity [40, 47]: 77% | residual activity [41, 47]: 7.3% | residual activity [42, 47]: 92% | residual activity [43, 47]: 79% | residual activity [44, 47]: 27% | residual activity [45, 47]: 79%
